Experimental data from patent US8715635B2, “Frictionless molecular rotary motors” (Technion Research & Development Foundation Limited, priority 2007, dated 2014).
Converted amounts (≈) assume the structure as drawn. Read-outs that look alike come from different tables or passages of the source.

Legend:
[1] = cited from earlier work
[2] = Solubility; format: physicochemical; details: water at pH=7, 30° C.
[3] = cited from earlier work; remark: listed apart in the source
[4] = Isothermal titration calorimetry (ITC) of CB[6] host with dicationic guest molecules; format: binding; details: in water at 30° C.
Description: Isothermal titration calorimetry (ITC) was previously employed to study complexation parameters of Compound 1 [63]. Measurement of the host-guest binding thermodynamic profile using ITC provides in a single experiment not only the binding constants (Kb) and binding stoichiometry (n), but also the differences of enthalpy (ΔH) and entropy (ΔS) of binding.
The experiment was carried out by loading the ITC sample cell with saturated aqueous solution of Compound 1 (1.4 ml) and titrating it with a neutral aqueous solution of the dicationic dihydrochloride salts of various exemplary guest molecules at concentrations that ranged from 3.3 mM to 5.0 mM. The heat generated during each injection was recorded (FIG. 1) and the thermodynamic parameters were acquired by non-linear least squares fit of the calorimetric titration data to a one-site binding model (Table 2).
A saturated solution of Compound 1 (0.4 mM) in water at pH=7 was prepared by stirring an excess of finely powdered Compound 1 overnight at 30° C. and filtering through a 100-μm micro-filter. Solutions of the guest molecules at concentrations of 3.3-6 mM, were prepared and filtered through a 100-μm micro-filter as well. Titration calorimetry measurements were performed with a VP-ITC calorimeter (Microcal, Northampton, Mass.) as previously described. Repeat determinations indicated errors of 3-10% in n, ΔH, degree, and K values over the most favorable concentration range. A solution of Compound 1 was titrated by 29 injections of 6 μL of guest molecule solutions at 30° C. each, and the titration data were analyzed using Origin2000 software.

Structure (SMILES)	ΔH of binding [4] [kcal/mol]	ΔS of binding [4]	also measured
O=C1N2CN3C(=O)N4CN5C(=O)N6CN7C(=O)N8CN9C(=O)N%10CN1C1C2N2CN%11C(=O)N(CN%12C(=O)N(CN%13C(=O)N(CN%14C(=O)N(CN1C2=O)C%10C9%14)C8C7%13)C6C5%12)C4C3%11 (stereo not drawn) [CB[5]]			solubility in aqueous acid ([1]; 3M HCl): about 60 mM
O=C1N2CN3C(=O)N4CN5C(=O)N6CN7C(=O)N8CN9C(=O)N%10CN%11C(=O)N%12CN%13C(=O)N%14CN1C1C2N2CN%15C(=O)N(CN%16C(=O)N(CN%17C(=O)N(CN%18C(=O)N(CN%19C(=O)N(CN%20C(=O)N(CN1C2=O)C%14C%13%20)C%12C%11%19)C%10C9%18)C8C7%17)C6C5%16)C4C3%15 (stereo not drawn) [CB[7]]			solubility in aqueous acid ([1]; 3M HCl): about 700 mM
O=C1N2CN3C(=O)N4CN5C(=O)N6CN7C(=O)N8CN9C(=O)N%10CN%11C(=O)N%12CN1C1C2N2CN%13C(=O)N(CN%14C(=O)N(CN%15C(=O)N(CN%16C(=O)N(CN%17C(=O)N(CN1C2=O)C%12C%11%17)C%10C9%16)C8C7%15)C6C5%14)C4C3%13 (stereo not drawn) [Compound 1, Cucurbit[6]uril]			concentration of saturated solution in water [2]: 400 µM; solubility in aqueous acid ([1]; HCO2H/H2O (1:1)): 61 mM (≈ 60.8 mg/mL); pKa value of the conjugate acid [3]: 3.02
NCCCCCCN [Compound 3′, 1,6-diaminohexane]	-13.760 ± 0.090	-20.4 cal/(mol·K)	ΔS of binding (entropy term, text) ([4]; text values in J): −85.77 J/mol.° K; ΔH binding enthalpy ([4]; text values in KJ): -13.76 kcal/mol
Cl.Cl.NCC#CC#CCN [Compound 4′, Hexa-2,4-diyne-1,6-diammonium dihydrochloride]	-0.696 ± 0.005	23.51	
Cl.Cl.NCC#CC#CCN1CCCC1 [Compound 5′, N-6-pyrrolidinium-hexa-2,4-diynyl ammonium dichloride]	-4.452 ± 0.057	9.29 cal/(mol·K)	
C(C#CCN1CCCC1)#CCN1CCCC1.Cl.Cl [Compound 6′, 1,6-Dipyrrolidinium-2,4-hexadiyne dichloride]	-3.718 ± 0.044	12.8 cal/(mol·K)	
